Results taken from patent publication US20160310519A1, “MODIFIED G-QUADRUPLEX NANOPARTICLES” (NANYANG TECHNOLOGICAL UNIVERSITY, priority 2013, published 2016).

Legend:
[1] = CD melting experiments of multiple N2-modified G-quadruplexes in low salt; type: physicochemical; conditions: low salt (1 mM KPi+1 mM KCl), CD at 290 nm
Experimental: CD melting experiments were performed for the unmodified sequence and for sequences containing multiple N2-modifications. Samples contained 4-5 μM DNA by strand concentration in 1 mM KCl and 1 mM KPi. Samples were heated to 95° C. (98° C. for N2-Ball-with-Hair sample) and cooled to 15° C. at a rate of 0.2° C./min. Samples were then heated in a similar manner. Data was recorded every 0.5° C. at 290 nm and corrected by subtraction at 320 nm. Normalized melting curves are used to determine the melting temperature (Tm) of modified sequences, which is taken as an average of the heating and cooling curves.
The designed sequences were tested in a “low salt” solution of 1 mM KPi+1 mM KCl. Of the sequences tested with multiple modifications, SEQ ID Nos. 38, 39, 41 and 42 were determined to maintain the (3+1) conformation by analysis of ^1H NMR and CD spectra, which were highly similar to SEQ ID NO:1 (FIG. 4).
Additionally, these changes in stability were roughly equivalent to the sum of stability changes observed for the individual single-position substitutions.

[2] = Temperature dependent CD spectra under physiological salt conditions; type: physicochemical
Experimental: Spectra were recorded on a JASCO-815 spectropolarimeter (Tokyo, Japan). Samples contained a DNA strand concentration of 4-5 μM. […] Spectra were normalized through subtracting by the CD absorbance at 320 nm and dividing by concentration of the sample determined by concurrent UV absorption measurements. Samples were annealed prior to recording of CD spectra by heating to 100° C. and allowed to cool slowly at room temperature.
The stability of the “Ball with Hair” structure formed by SEQ ID NO:42 under “physiological salt” conditions (10 mM Kpi+130 mM KCL) was similar to those experienced in a cellular environment. NMR spectra of SEQ ID NO:42 under physiological salt conditions matched the spectra recorded in low salt conditions.

Substance | Δ Tm [1] | melting temperature [1] [°C] | Δ Tm ([1]; listed as ball with hair) [°C] | melting temperature ([2]; physiological K+ conditions (10 mM KPi+130 mM KCl)) [°C] | CD signal intensity observed at 95° C. ([2]; physiological salt (10 mM KPi+130 mM KCl), 95° C.)
SEQ ID NO:38: contains two ^HexG substitutions into separate grooves in positions that were highly stabilizing in the single-substitutions studies (TTNGGTTANGGTTAGGGTTAGGGA; two N2-hexyl guanine modifications, chemistry not fully specified) | +6.9 °C |  |  |  | 
SEQ ID NO:43: contains a variety of 8 N2-modifications aimed to maximize the thermal stability (TTNGGTTANGNTTANGNTTANGNA; DNA, backbone and the base at N not given here; further chemistry not fully specified) | +35.6 °C |  |  |  | 
SEQ ID NO:41: designed to contain a modification in each groove of the G-quadruplex nanoparticle (TTNGGTTANGNTTANGGTTAGGGA; DNA, backbone and the base at N not given here; N2-modified guanines at marked positions) | +26.6 °C |  |  |  | 
SEQ ID NO:39: contains two ^MetG substitutions of guanines that neighbors within the wide groove (TTGGGTTAGNNTTAGGGTTAGGGA; two N2-methyl guanine modifications, chemistry not fully specified) | +18.2 °C |  |  |  | 
SEQ ID NO:42: containing eight ^HexG modifications towards the design of a "Ball with Hair" type of nanoparticle (TTNNGTTANGNTTANGNTTAGNNA; eight N2-hexyl guanine modifications, chemistry not fully specified) | +46.2 °C | 91.7 | 46 | > 95 | more than 80%
